# Test results taken from publication PMC4721062, “Oxadiazole-2-oxides may have other functional targets, in addition to SjTGR, through which they cause mortality in Schistosoma japonicum” (Parasites & Vectors, 2016).
# Like-named read-outs stand apart in the source and are kept apart here.
# Assays:
# recombinant SjTGR = target: T1, recombinant SjTGR (Schistosoma japonicum, UniProt B5THG7); assay: Inhibition of TrxR activity of recombinant SjTGR (DTNB assay); assay type: biochemical; conditions: IC50 of SjTGR, 50 nM SjTGR, 1 mM NADPH, 15 min preincubation, DTNB reduction
# T1 sequence (B5THG7 1-596): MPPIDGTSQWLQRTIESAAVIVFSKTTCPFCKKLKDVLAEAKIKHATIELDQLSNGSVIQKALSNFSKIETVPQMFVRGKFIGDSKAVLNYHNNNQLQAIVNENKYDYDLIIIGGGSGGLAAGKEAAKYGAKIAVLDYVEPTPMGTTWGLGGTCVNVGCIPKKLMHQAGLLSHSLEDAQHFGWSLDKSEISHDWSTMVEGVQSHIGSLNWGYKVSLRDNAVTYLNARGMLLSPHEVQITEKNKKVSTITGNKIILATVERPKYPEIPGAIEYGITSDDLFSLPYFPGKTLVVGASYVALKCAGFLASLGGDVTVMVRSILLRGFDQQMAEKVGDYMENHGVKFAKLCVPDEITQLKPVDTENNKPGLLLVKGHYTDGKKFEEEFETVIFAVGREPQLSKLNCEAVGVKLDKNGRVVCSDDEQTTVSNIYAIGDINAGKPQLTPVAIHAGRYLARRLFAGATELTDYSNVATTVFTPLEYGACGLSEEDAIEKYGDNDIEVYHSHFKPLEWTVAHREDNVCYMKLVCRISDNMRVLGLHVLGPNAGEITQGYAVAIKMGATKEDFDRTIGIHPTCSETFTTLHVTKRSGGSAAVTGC
# Protocol: The purified recombinant SjTGR proteins were produced according to the method described by Song et al.. The inhibition of TrxR activity by the recombinant SjTGR was performed as reported by Rai et al.. Briefly, 50 nM SjTGR and 1 mM NADPH were incubated with different concentrations of oxadiazole-2-oxides (2, 4, 6, 10, 20 μM) for 15 min at room temperature. Then, potassium phosphate buffer (pH 7.4) containing 10 mM EDTA, 100 μM NADPH, and 3 mM DTNB was added to start the reaction. The increase of absorbance at 412 nm was monitored during the first 2 min. All assays were done in triplicate.
# 50 nM SjTGR and 1 mM NADPH were incubated with different concentrations of oxadiazole-2-oxides (2, 4, 6, 10, 20 μM) for 15 min at room temperature. Then, potassium phosphate buffer (pH 7.4) containing 10 mM EDTA, 100 μM NADPH, 3 mM DTNB was added to start the reaction. The increase in absorbance at 412 nm was monitored during the first 2 min. All assays were done in triplicate. Results shown are the mean ± SD (n = 3)
# juvenile S. japonicum = assay: microbe, parasite or virus in culture; assay type: cell-based; conditions: juvenile worms
# Protocol: Infected Oncomelania hupensis, provided by the Department of Snail Biology, Jiangsu Institute of Parasitic Diseases, were incubated at 25–28 °C, under illumination, for 2 h to hatch S. japonicum cercariae. The cercariae were collected from the water surface with clean cover glass and placed into a centrifuge tube using pre cooled RPMI 1640. Centrifugation was performed for 1 min at 1500 rpm, and then the steps above were repeated. After centrifugation, the supernatant solution was removed. The cercariae at the bottom were washed twice and resuspended with RPMI 1640. Approximately 20–30 cercariae (1 mL of the resuspension medium) were added to one well in a 24-well culture plate. They were incubated overnight at 37 °C with 5 % CO2. The survival rates and number of tails shed were observed under an inverted microscope. Cercariae that had shed their tails were used as juvenile S. japonicum.
# 20–30 juvenile worms were transferred into each well of a 24-well culture plate, containing 2 mL RPMI 1640 medium, 20 mM HEPES, 100 IU/mL penicillin, […] streptomycin and 10 % fetal bovine serum. Then, oxadiazole-2-oxides (2, 5, 10, and 50 μM), diluted with the RPMI 1640 medium, were added to their allocated wells. The worms in the negative control wells were treated with equal volumes of RPMI 1640 or DMSO and worms treated with AS were observed as positive controls. The juvenile worms’ survival rates were observed under an inverted phase contrast microscope (Leica, Wetzlar, Germany) at 24, 48 and 72 h. Parasite death was defined as an unclear internal structure of the juvenile worms, with incomplete tegument and contents overflowing radially, or unclear internal structure with complete tegument, but having no motor activity during 1 min of continuous observation. All assays were repeated three times.
# ^b Data collected by visual examination of worm movement and shape; % D = The number of worms dead / The total number of worms observed, and worms dead judged by unclear internal structure of juvenile worms with uncompleted tegument, and contents overflowing radially, or unclear internal structure with complete tegument, but having no motor activity during 1 min of continuous observation. The data presented are the average of three independent experiments.
# [1] = tested on: juvenile S. japonicum in mice; assay: Treatment of infected mice at juvenile worm stage; assay type: in vivo, Schistosoma japonicum (ICR mice); conditions: 10 mg/kg i.p. daily for 5 days from day 7 post-infection
# Protocol: (§1) The abdominal skin of each mouse (ICR, female, 22–24 g) was exposed to 20 S. japonica cercariae (as described above). The mice were intraperitoneally injected with 10 mg/kg oxadiazole-2-oxides daily for 5 days, beginning either 7 or 35 days post-infection. Control mice were treated with 10 mg/kg of the carrier medium. All mice were sacrificed 42 days post-infection. The worm burden of each mouse was confirmed by counting the number of worms observed from a portal vein perfusion. The mouse livers were digested overnight with 5 % potassium hydroxyl solution at 37 °C and the eggs in the liver tissue were counted under an inverted phase contrast microscope. The worm and egg reduction rates were calculated using the following formulas: Wormreductionrate%=meannumberofadultwormspermouseincontrolgroup−meannumberofadultwormspermouseinexperimentalgroup/meannumberofadultwormspermouseincontrolgroup. Eggreductionrate%=meannumberofeggspermouseincontrolgroup−meannumberofeggspermouseinexperimentalgroup/meannumberofeggspermouseincontrolgroup.
# [2] = Cytotoxicity assay on Hela cells (MTT); assay type: cell-based; conditions: human
# Protocol: Cytotoxicity assays were performed using Hela cells. Cells in the exponential growth phase were collected by centrifugation and a concentration of 4–5 × 10^4/mL was created. 100 μL of the cell suspension was added to each well of a 96-well plate and cultured overnight at 37 °C in a humid atmosphere with 5 % CO2. Oxadiazole-2-oxides (at 10, 20, 40, 80 and 160 μM) were added. Each concentration was assayed in triplicate, and control wells (no cells and no drugs) were assayed at the same time. The “no cell” control wells only contained RPMI 1640 medium, MTT, DMSO, and oxadiazole-2-oxides. The “no drug” control wells contained the Hela cells, RPMI 1640 medium, MTT and DMSO. The cells were cultured for 48 h at 37 °C in a humid atmosphere with 5 % CO2. Then, 20 μL of 5 mg/mL MTT was added to each well and the culture conditions were maintained for 4 h. After this point, the medium was removed and 150 μL DMSO was added into each well to dissolve any crystallisation. The value of absorbance at 570 nm of each well was measured (at 570 nm) with a microplate reader to assess the toxic effect of the oxadiazole-2-oxides on the vertebrate cells.
# adult S. japonicum = assay: microbe, parasite or virus in culture; assay type: cell-based; conditions: adult worms
# Description: ICR mice (20–22 g), were obtained from the Shanghai Sub-Center of Experimental Animals, Chinese Academy of Sciences. They were maintained at the Department of Experimental Animals, Jiangsu Institute of Parasitic Diseases. To infect each mouse, its abdominal skin was exposed to 50 S. japonica cercariae. All of the mice were executed to collect S. japonica adult worms, through portal vein perfusion, 35 days post-infection. The adult S. japonica collected were washed with RPMI 1640 medium and then kept in RPMI 1640 medium (pH 7.5) with HEPES 20 mM, penicillin (100 IU/mL), streptomycin ([…]) and 10 % fetal bovine serum. Then, two pairs of adult worms were transferred into each well of a 24-well culture plate, with 2 mL of the same medium. The worms were cultured at 37 °C in a humid atmosphere with 5 % CO2.
# Adult worms were cultured in a 24-well culture plate for 30–60 min at 37 °C, in a humid atmosphere with 5 % CO2. Then, oxadiazole-2-oxides at different concentrations (10, 25, 50, 100 μM) were added. Equal volumes of RPMI 1640 or DMSO were applied as negative controls, while PZQ was applied as a positive control. The adult worm mobility and parasite survival rates were monitored using an inverted phase contrast microscope, at 24, 48 and 72 h. Parasite death was defined as there being no motor activity during 2 min of continuous observation, and morphological and tegumental alterations. All assays were repeated three times.
# ^b Data collected by visual examination of worm movement and shape; n.e. […] The data presented are the average of three independent experiments.
# [3] = tested on: adult S. japonicum in mice; assay: Treatment of infected mice at adult worm stage; assay type: in vivo, Schistosoma japonicum (ICR mice)
# Protocol: as §1
# [4] = Schistosoma japonicum, 24 h, read-out: Killing activity 24hr
# [5] = Schistosoma japonicum, 48 h, read-out: Killing activity 48hr
# [6] = Schistosoma japonicum, 72 h, read-out: Killing activity 72hr
# [7] = mice, 10 mg/kg i.p. daily for 5 days from day 35 post-infection, sacrificed day 42
structure (smiles),measurement,setting,value
"C[C@@H]1CC[C@H]2[C@@H](C)C(=O)O[C@@H]3O[C@@]4(C)CC[C@@H]1[C@]32OO4 [AS, artemisinin, reference compound]",IC50,recombinant SjTGR,> 20 µM
same,killing at 2 µM,juvenile S. japonicum; [4],16.2%
same,killing at 2 µM,juvenile S. japonicum; [5],24.3%
same,killing at 2 µM,juvenile S. japonicum; [6],32.4%
same,killing at 5 µM,juvenile S. japonicum; [4],34.1%
same,killing at 5 µM,juvenile S. japonicum; [5],36.4%
same,killing at 5 µM,juvenile S. japonicum; [6],40.9%
same,killing at 50 µM,"juvenile S. japonicum; Schistosoma japonicum, 50 μM, 24 h, read-out: Killing activity 24hr",51.3%
same,mortality at 50 µM,"juvenile S. japonicum; Schistosoma japonicum, 50 μM, 24 h, read-out: Mortality of juvenile worms",51.3 ± 5.1%
same,killing at 50 µM,"juvenile S. japonicum; Schistosoma japonicum, 50 μM, 48 h, read-out: Killing activity 48hr",66.7%
same,killing at 50 µM,"juvenile S. japonicum; Schistosoma japonicum, 50 μM, 72 h, read-out: Killing activity 72hr",76.9%
same,Killing activity 24hr,"juvenile S. japonicum; 10 μM, 24 h",47.6%D
same,Killing activity 48hr,"juvenile S. japonicum; 10 μM, 48 h",66.7%D
same,Killing activity 72hr,"juvenile S. japonicum; 10 μM, 72 h",71.4%D
same,Number of eggs per gram of liver (Mean ± SD),[1]; sacrificed day 42,"2,932.2 ± 1,149.3"
same,Number of worms (Mean ± SD),[1]; sacrificed day 42,2.3 ± 1.0
same,Egg reduction rate,[1]; versus control,63.5 (P < 0.01^*) %
same,Worm reduction rate,"[1]; versus control, 10 mg/kg",78.5 (P < 0.01^*) %
"O=C(C1CCCCC1)N1CC(=O)N2CCc3ccccc3C2C1 (centres unmarked) [PZQ, praziquantel, reference compound]",IC50,recombinant SjTGR,> 20 µM
same,"viability at 72 h, 80 µM",[2],76%
same,killing at 25 µM,"adult S. japonicum; Schistosoma japonicum, 25 μM, 24 h, read-out: Killing activity 24hr",25%
same,mortality at 25 µM,"adult S. japonicum; Schistosoma japonicum, 25 μM, 24 h, read-out: Mortality of adult worms",25 ± 7.8%
same,killing at 25 µM,"adult S. japonicum; Schistosoma japonicum, 25 μM, 48 h, read-out: Killing activity 48hr",25%
same,killing at 25 µM,"adult S. japonicum; Schistosoma japonicum, 25 μM, 72 h, read-out: Killing activity 72hr",62.5%
same,killing at 50 µM,adult S. japonicum; [4],25%
same,killing at 50 µM,adult S. japonicum; [5],37.5%
same,killing at 50 µM,adult S. japonicum; [6],62.5%
same,killing at 100 µM,adult S. japonicum; [4],37.5%
same,killing at 100 µM,adult S. japonicum; [5],50%
same,killing at 100 µM,adult S. japonicum; [6],87.5%
same,Killing activity 24hr,"adult S. japonicum; 10 μM, 24 h",25.0%D
same,Killing activity 48hr,"adult S. japonicum; 10 μM, 48 h",25.0%D
same,Killing activity 72hr,"adult S. japonicum; 10 μM, 72 h",37.5%D
same,Reduction in the female worms,[3]; mice treated at adult worm stage (data not shown),60.5%
same,Number of eggs per gram of liver (Mean ± SD),[3]; [7],3721.5 ± 1600.6
same,Number of worms (Mean ± SD),[3]; [7],3.3 ± 1.7
same,Egg reduction rate,"[3]; mice, 10 mg/kg i.p. daily for 5 days from day 35 post-infection, versus control",53.7 (P < 0.01^*) %
same,Worm reduction rate,"[3]; mice, 10 mg/kg i.p. daily for 5 days from day 35 post-infection, versus control, 10 mg/kg",72.3 (P < 0.01^*) %
